Test results from US20240366712A1, “G[…] USE IN A METHOD OF PREVENTING OR TREATING INFECTIONS WITH R[…]” (priority 2021, published 2024).

Columns and labels:
[1] = tested on: Influenza A Virus H1N1v strain A/Regensburg/D6/09 (H1N1v); format: cell-based

Compound: CO[C@H]1C[C@@H]2CC[C@@H](C)[C@@](O)(O2)C(=O)C(=O)N2CCCC[C@H]2C(=O)O[C@H]([C@H](C)C[C@@H]2CC[C@@H](O)[C@H](OC)C2)CC(=O)[C@H](C)/C=C(\C)[C@@H](O)[C@@H](OC)C(=O)[C@H](C)C[C@H](C)/C=C/C=C/C=C/1C [Rapamycin, reference compound]
- Effect on VeroE6 cell viability compared to mock control (VeroE6 cells): slightly decreased the viability of cells

Compound: Griffithsin [unencapsulated GRFT]
- Dilution at which PFU reduction reached the detection limit [1]: did not reach the detection limit at 1:2 dilution
- Total GRFT concentration at which PFU reduction reached the detection limit [1]: > 1.325 mg/mL
- PFU reduction in virus infected cells ([1]; A549 cells, different dilutions/concentrations, n=3 per reading point): concentration dependent PFU reduction
- Toxic effect on VeroE6 cell viability compared to mock control (VeroE6 cells): no specific toxic effect
